Assay results from patent US20090143388A1, “TREATMENT OF BRAIN DISORDERS” (priority 2007, published 2009).
Entries after “also recorded” stand apart in the source; their conditions may differ. One block for each compound: values may come before it.

Key:
[1] = test system: MPP^+-induced hydroxyl radical (.OH) in the mitochondria; assay: MPP+-induced hydroxyl radical (2,3-DHBA) production in sub-mitochondrial particles; assay type: biochemical; details: for MPP+-induced 2,3-DHBA (OH adduct of salicylate) production in the mitochondria: irsogladine 0.01-1 mM, MPP+ 100 μM, sub-mitochondrial particles, 30 min; for increase in the production of 2,3-DHBA (OH production): sub-mitochondrial particles incubated with MPP+ (100 μM)
Experimental: FIG. 1. Irsogladine scavenges MPP^+-induced OH from the mitochondria. Sub-mitochondrial particles were incubated with the neurotoxic metabolite of MPTP, 1-methyl-4-phenyl pyridinium ion (MPP^+) and salicylic acid in the presence and absence of irsogladine. The resulting OH adducts of salicylate, 2,3-dihydroxy benzoic acid (2,3-DHBA) was assayed using a HPLC equipped with electrochemical detector.
Irsogladine scavenges MPP^+-induced hydroxyl radical (.OH) in the mitochondria. The oxidative metabolite of MPTP, 1-methyl-4-phenylpyridinium ion (MPP^+) is selectively taken into the dopaminergic neurons through dopamine transporters, and sequestered in the mitochondria.
Preparation of sub-mitochondrial particles and estimation of hydroxyl radical. Mitochondrial P2 fraction was obtained by making a 10% homogenate of the cerebral cortex, with a glass-Teflon homogenizer in 0.32 M sucrose in cold 10 mM potassium phosphate buffer, pH 7.2. The homogenate was centrifuged at 1,000×g for 10 min at 4° C. using a Sorvall centrifuge. The supernatant was centrifuged at 10,000×g for 30 min. The pellet was resuspended in the same volume of ice-cold 50 mM Tris in 10 mM potassium phosphate buffer (pH 7.2) and centrifuged at 10,000×g for 30 min. This step was repeated once. The pellet thus obtained was suspended in the same volume of ice-cold 10 mM potassium phosphate buffer, pH 7.2 and kept overnight at −20° C. The mitochondrial suspension was thawed, and the protein content was estimated.
The .OH adduct of salicylate, 2,3-dihydroxybenzoic acid (DHBA), was assayed employing HPLC-electrochemistry as described earlier. The ex-vivo OH production was tested in sub-mitochondrial particles. Mitochondrial fraction was incubated with MPP^+ (100 μM) and phosphate buffer (0.1 M) for 5 min. Sodium salicylate (0.75 mM) and different concentrations of irsogladine (0.01-1 mM) were added 5 min after the addition of MPP^+ and incubated for 30 min. The reaction was stopped by adding equal amount of ice-cold perchloric acid (0.1 M) containing 0.01% EDTA, kept on ice for 30 min and then centrifuged at 10,000×g for 5 min. The supernatant was injected into the HPLC system for the assay of 2,3-DHBA. Standard solution containing 2,3-DHBA was injected prior to and after the analyses of the samples, and the products formed are expressed as pmol/mg protein/min.

Balb/c mice [2] = assay: Striatal DA, DOPAC and HVA by HPLC-electrochemistry in MPTP-treated mice; assay type: in vivo
Experimental: FIG. 2. Irsogladine reverses MPTP-induced reductions in striatal DA metabolism. Striatal DA (A) and its metabolites, DOPAC (B) and HVA (C) were assayed employing a sensitive HPLC-electrochemical procedure on the 5th day following the administration of MPTP (30 mg/kg; administered twice, 16 h apart, i.p.). Irsogladine (25, 50 and 100 mg/kg, p.o.) was administered for two days at 12 h intervals following the second MPTP injection. Results given are mean±S.E.M., n=6-8 for control groups and 10-12 for MPTP-treated groups (*p<0.05 vs. control; Student's t-test).
(§1) Animals. Adult male Balb/c mice, weighing 20-25 g were used in the present study. They were housed under standard conditions of temperature (22±1° C.), humidity (60±5%) and illumination (12-h light/dark cycle). The experimental protocol met the National Guidelines on the ‘Proper Care and Use of Animals in Laboratory Research’ (Indian National Science Academy, New Delhi, 2000) and was approved by the Animal Ethics Committee of the Institute. The procedures adhered to the NIH Guidelines for the Care and Use of Laboratory Animals.
(§2) Experimental design. The animals were divided into eight groups. The first four groups of animals received either vehicle (0.5% CMC) or different doses of irsogladine (25, 50, and 100 mg/kg). The fifth group of animals was administered with MPTP. The remaining three groups received the two doses of MPTP, and different doses of irsogladine (25, 50, and 100 mg/kg). Each of the control groups consisted of 6-8 animals; while MPTP treated groups consisted of 10-12 animals. The total period of study was 5 days. Each experiment was repeated at least twice on separate days.
(§3) MPTP was dissolved in normal saline and administered intraperitonially (i.p.), twice, 16 h apart, at the dose of 30 mg/kg to mice. The animals received the first injections at 1700 h and the second at 0900 h the next day. Different doses of irsogladine (25, 50, and 100 mg/kg) were suspended in 0.5% sodium CMC and administered to control and MPTP-treated mice. Irsogladine administration started 30 min after the second MPTP injection and continued at an interval of 12 h for the next two days. The volume of injection was 10 μl/g body weight.
(§4) Analysis of biogenic amines by HPLC-electrochemistry. DA, DOPAC, HVA, 5-HT, and 5-HIAA were assayed employing HPLC equipped with an electrochemical detector. Animals were sacrificed on the 5th day by cervical dislocation. Striata were quickly dissected out from the left and right hemispheres of the brain, weighed, sonicated in chilled HClO4 (0.1 M) containing 0.05% EDTA and centrifuged at 12,500×g for 5 min. The supernatant was injected into an HPLC-ECD system (Merck-Hitachi, Germany). The biogenic amines were separated on an ion-pair Ultrasphere RP analytical column (Beckmann, Calif.). The mobile phase contained 8.65 mM heptane sulfonic acid, 0.27 mM EDTA, 13% acetonitrile (HPLC grade), 0.45% triethylamine, and 0.25% phosphoric acid (v/v). The flow rate was 0.7 ml/min and the glassy carbon working electrode was kept at 0.74 V.

Balb/c mice [3] = assay: Striatal 5-HT and 5-HIAA levels by HPLC-electrochemistry; assay type: in vivo; details: for level of 5-HIAA, in words / level of serotonin (5-HT), in words: animals treated with MPTP and/or irsogladine; for 5-HIAA (pmol/mg tissue; Mean ± SEM) / 5-HT (pmol/mg tissue; Mean ± SEM): striatum, 5th day
Experimental: Serotonin (5-HT) and its metabolite were assayed employing a sensitive HPLC-electrochemical procedure in the striata of Balb/c mice on 5th day following MPTP treatment (30 mg/kg; administered twice, 16 h apart, i.p.). Irsogladine (25, 50 and 100 mg/kg, p.o.) was administered for two days at 12 h intervals following second MPTP injection. Results given are mean±S.E.M., n=6-8 for control groups and 10-12 for MPTP-treated groups
as §1, §2, §3, §4

Balb/c mice [4] = assay: MPTP-induced akinesia; assay type: in vivo
Experimental: (§5) FIG. 3. Effect of irsogladine on MPTP-induced akinesia (A) and catalepsy (B). Assessment of catalepsy was undertaken 2 h after the treatment of MPTP in Balb/c mice. […] Results given are mean±S.E.M., n=6-8 for control group and 10-12 for MPTP-treated groups (*p<0.01 vs. control; Mann-Whitney Rank Sum test).
as §2, §3
Akinesia. Akinesia was measured by noting the latency in seconds (s) of the animals to move all four limbs and the test was terminated if the latency exceeded 180 s. Each animal was initially acclimatized for 5 min on a wooden elevated platform (40 cm×40 cm×30 cm) used for measuring akinesia in mice. Using a stopwatch, the time taken (s) by the animal to move all the four limbs was recorded. This exercise was repeated five times for each animal.

Balb/c mice [5] = assay: MPTP-induced catalepsy; assay type: in vivo; details: for catalepsy (rigidity), drug alone: irsogladine alone, no MPTP
Experimental: as §5, §2, §3
Catalepsy. The term implies the inability of an animal to correct an externally imposed posture. Catalepsy was measured by placing the animals on a flat horizontal surface with both the hind limbs on a square wooden block (3 cm high) and the latency in seconds was measured to move the hind limbs from the block to the ground. The animals were initially acclimatized on the wooden platform.

Balb/c mice [6] = assay: Swim-ability (swim score) after MPTP; assay type: in vivo; details: 4th day
Experimental: FIG. 4. Irsogladine attenuates MPTP-induced swim disability in mice. Effect of different doses of Irsogladine on the swimming ability of Balb/c mice was tested in warm water (27±2° C.) on the fourth day following the treatment of MPTP (30 mg/kg, i.p., twice, 16 h apart). Swim-scores were recorded on a performance intensity scale of 0-3 for all the animals for 10 min. Results given are mean±S.E.M., n=6-8 for control groups and 10-12 for MPTP-treated groups (p≦0.05; vs. control; Wilcoxon Signed Rank test for group comparison).
as §2
MPTP was dissolved in normal saline and administered intraperitonially (i.p.), twice, 16 h apart, at the dose of 30 mg/kg to mice. The animals received the first injections at 1700 h and the second at 0900 h the next day. […]

[7] = irsogladine post-treatment in MPTP-treated mice
[8] = irsogladine 25 mg/kg p.o. + MPTP
[9] = irsogladine 25 mg/kg p.o., no MPTP
[10] = irsogladine 50 mg/kg p.o. + MPTP
[11] = irsogladine 50 mg/kg p.o., no MPTP
[12] = irsogladine 100 mg/kg p.o. + MPTP
[13] = irsogladine 100 mg/kg p.o., no MPTP
[14] = highest dose of irsogladine in MPTP-treated mice
[15] = irsogladine 25, 50, 100 mg/kg p.o. in MPTP-treated mice, 2 h after second MPTP injection
[16] = MPTP alone (30 mg/kg i.p. twice, 16 h apart)
[17] = MPTP 30 mg/kg i.p. twice, 2 h after second injection, compared to saline treated mice

akinesia, drug alone (Balb/c mice [4]; irsogladine alone, no MPTP): absent
Structure (SMILES): Nc1nc(N)nc(-c2cc(Cl)ccc2Cl)n1 [Irsogladine, 2,4-diamino-6-(2,5-dichlorophenyl)-s-triazine]
MPP+-induced 2,3-DHBA (OH adduct of salicylate) production in the mitochondria [1]: significantly attenuated | MPP+-induced 2,3-DHBA (OH adduct of salicylate) production in the mitochondria ([1]; listed as irsogladine): dose-dependently scavenged | protection of striatal DA (Balb/c mice [2]; irsogladine 25, 50 and 100 mg/kg p.o., b.i.d. for 2 days, post-treatment in MPTP-treated mice, 5th day): significant dose-dependant protection | alteration of striatal DA (Balb/c mice [2]; irsogladine alone in control animals): did not cause significant alteration | reversal of MPTP-induced reduction of striatal DOPAC (Balb/c mice [2]; [7]): dose-dependant reversal | reversal of MPTP-induced reduction of striatal HVA (Balb/c mice [2]; [7]): dose-dependant reversal | alteration of striatal DOPAC level (Balb/c mice [2]; irsogladine treatment alone): did not cause any significant alterations | alteration of striatal HVA level (Balb/c mice [2]; irsogladine treatment alone): did not cause any significant alterations | level of 5-HIAA, in words (Balb/c mice [3]): not altered | level of serotonin (5-HT), in words (Balb/c mice [3]): not altered | 5-HIAA (pmol/mg tissue; Mean ± SEM) (Balb/c mice [3]; [8]): 2.11 ± 0.17 pmol/mg tissue | 5-HT (pmol/mg tissue; Mean ± SEM) (Balb/c mice [3]; [8]): 2.64 ± 0.24 pmol/mg tissue | 5-HIAA (pmol/mg tissue; Mean ± SEM) (Balb/c mice [3]; [9]): 2.32 ± 0.31 pmol/mg tissue | 5-HT (pmol/mg tissue; Mean ± SEM) (Balb/c mice [3]; [9]): 2.52 ± 0.34 pmol/mg tissue | 5-HIAA (pmol/mg tissue; Mean ± SEM) (Balb/c mice [3]; [10]): 2.88 ± 0.17 pmol/mg tissue | 5-HT (pmol/mg tissue; Mean ± SEM) (Balb/c mice [3]; [10]): 2.97 ± 0.27 pmol/mg tissue | 5-HIAA (pmol/mg tissue; Mean ± SEM) (Balb/c mice [3]; [11]): 2.99 ± 0.29 pmol/mg tissue | 5-HT (pmol/mg tissue; Mean ± SEM) (Balb/c mice [3]; [11]): 2.96 ± 0.61 pmol/mg tissue | 5-HIAA (pmol/mg tissue; Mean ± SEM) (Balb/c mice [3]; [12]): 2.01 ± 0.09 pmol/mg tissue | 5-HT (pmol/mg tissue; Mean ± SEM) (Balb/c mice [3]; [12]): 2.68 ± 0.24 pmol/mg tissue | 5-HIAA (pmol/mg tissue; Mean ± SEM) (Balb/c mice [3]; [13]): 2.32 ± 0.16 pmol/mg tissue | 5-HT (pmol/mg tissue; Mean ± SEM) (Balb/c mice [3]; [13]): 2.52 ± 0.28 pmol/mg tissue | attenuation of MPTP-induced akinesia, highest dose (Balb/c mice [4]; [14]): complete | attenuation of MPTP-induced akinesia (Balb/c mice [4]; [15]): dose-dependently reduced; also recorded: dose-dependently attenuated | attenuation of MPTP-induced catalepsy, highest dose (Balb/c mice [5]; [14]): complete | attenuation of MPTP-induced catalepsy (Balb/c mice [5]; [15]): dose-dependently reduced; also recorded: dose-dependently attenuated | catalepsy (rigidity), drug alone (Balb/c mice [5]): does not cause catalepsy | catalepsy (rigidity), drug alone (Balb/c mice [5]; listed as irsladine): absent | improvement of swim score (Balb/c mice [6]; irsogladine post-treatment in MPTP-treated mice, dose-dependently): significantly improved

Structure (SMILES): CN1CC=C(c2ccccc2)CC1 [MPTP, 1-methyl-4-phenyl-1,2,3,6-tetrahydropyridine]
depletion of striatal DA (Balb/c mice [2]; MPTP 30 mg/kg i.p., 2 times 16 h apart, 5th day, compared to saline-injected mice): 55% | level of 5-HIAA, in words (Balb/c mice [3]): not altered | level of serotonin (5-HT), in words (Balb/c mice [3]): not altered | 5-HIAA (pmol/mg tissue; Mean ± SEM) (Balb/c mice [3]; [16]): 2.50 ± 0.24 pmol/mg tissue | 5-HT (pmol/mg tissue; Mean ± SEM) (Balb/c mice [3]; [16]): 2.77 ± 0.31 pmol/mg tissue | akinetic behavior induced by MPTP (Balb/c mice [4]; [17]): significant akinetic | cataleptic behavior induced by MPTP (Balb/c mice [5]; [17]): cataleptic | swim score after MPTP (Balb/c mice [6]; MPTP 30 mg/kg i.p. twice, vs sham-treated animals, from the 2nd minute onwards): significant reduction

Structure (SMILES): C[n+]1ccc(-c2ccccc2)cc1 [MPP^+, 1-methyl-4-phenylpyridinium ion]
increase in the production of 2,3-DHBA (OH production) [1]: 5 fold | increase in the production of 2,3-DHBA (OH production) ([1]; listed as MPP+): about 5 fold
